This note sets out measurements from PubChem BioAssay AID2060331 (Molecular Pharmacology Branch, DTP, NCI, 2025).

In general, IC50 refers to the midpoint of a concentration-inhibition curve. As a reminder, the viability, T/C is the ratio of treated to control.

In this assay the test system is Hs578T multi-cell spheroids, viability. The assay is described as follows: Anticancer human tumor Hs578T cell line growth inhibition [IpAb].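 On all read-outs here: drug exposure lasted 7 days before readout.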 Conditions: for viability, T/C: stronger effect = lower value. In outline:
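Multi-cell spheroids of 60% tumour cells, 25% HUVEC and 15% MSC in ultra-low-attachment U-bottom wells, treated with agents combined with ipatasertib or abemaciclib. Half-log ranges top out near clinical Cmax, or 10 microM when Cmax is unknown.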

Where [1] appears, read: curve of first compound, second compound 0.1 µM.
Where [2] appears, read: curve of first compound, second compound 0.316 µM.
[3] abbreviates: curve of first compound, second compound 1 µM.
Setting [4] is: curve of first compound, second compound 3.16 µM.
Setting [5] is: curve of first compound, second compound 10 µM.
[6] abbreviates: second compound 0.1 µM, first compound 0.00949 µM.
Setting [7] is: second compound 0.1 µM, first compound 0.03 µM.
The mark [8] stands for this setting: second compound 0.1 µM, first compound 0.0949 µM.
Where [9] appears, read: second compound 0.1 µM, first compound 0.3 µM.
Where [10] appears, read: second compound 0.1 µM, first compound 0.949 µM.
[11] abbreviates: second compound 0.1 µM, first compound 3 µM.
Where [12] appears, read: second compound 0.316 µM, first compound 0.00949 µM.
Setting [13] is: second compound 0.316 µM, first compound 0.03 µM.
[14] abbreviates: second compound 0.316 µM, first compound 0.0949 µM.
The mark [15] stands for this setting: second compound 0.316 µM, first compound 0.3 µM.
[16] abbreviates: second compound 0.316 µM, first compound 0.949 µM.
The mark [17] stands for this setting: second compound 0.316 µM, first compound 3 µM.
Where [18] appears, read: second compound 1 µM, first compound 0.00949 µM.
The mark [19] stands for this setting: second compound 1 µM, first compound 0.03 µM.
The mark [20] stands for this setting: second compound 1 µM, first compound 0.0949 µM.
Setting [21] is: second compound 1 µM, first compound 0.3 µM.
Where [22] appears, read: second compound 1 µM, first compound 0.949 µM.
Where [23] appears, read: second compound 1 µM, first compound 3 µM.

SMILES strings stand for the structures. Values joined by “and” are separate entries in the source; they are usually repeats but may differ in a detail not shown here. Equal entries are not always repeated.

As to `Cn1cnc2c(F)c(Nc3ccc(Br)cc3Cl)c(C(=O)NOCCO)cc21` + CC(C)NCC(C(=O)N1CCN(c2ncnc3c2C(C)CC3O)CC1)c1ccc(Cl)cc1, the IC50 by setting is: under setting [1], 2.31 µM; under setting [2], 1.2 µM; under setting [3], 0.4 µM; under setting [4], 0.123 µM; under setting [5], 0.0265 µM. Moreover, the viability, T/C by setting is: under setting [6], 96.2%; under setting [7], 91.8%; under setting [8], 85.3%; under setting [9], 84.2%; under setting [10], 74.8%; under setting [11], 42.8%. In addition, the viability, T/C was 87.7% under setting [12]; 86.2% under setting [13]; 83.4% under setting [14]; 64.9% under setting [15]; 58% under setting [16]; 30.4% under setting [17]. Also, the viability, T/C was 77% under setting [18]; 72% under setting [19]; 63.1% under setting [20]; 54.4% under setting [21]; 39.2% under setting [22]; 19.3% under setting [23]. Besides, the viability, T/C (second compound 3.16 µM, first compound 0.00949 µM) was 53.8%; the viability, T/C (second compound 3.16 µM, first compound 0.03 µM) was 52.2%; the viability, T/C (second compound 3.16 µM, first compound 0.0949 µM) was 47.9%; the viability, T/C (second compound 3.16 µM, first compound 0.3 µM) was 49.4%; the viability, T/C (second compound 3.16 µM, first compound 0.949 µM) is 35.2%; the viability, T/C (second compound 3.16 µM, first compound 3 µM) is 12.4%. The viability, T/C reads like this: (second compound 10 µM, first compound 0.00949 µM) 52.6%; (second compound 10 µM, first compound 0.03 µM) 50.1%; (second compound 10 µM, first compound 0.0949 µM) 42.2%; (second compound 10 µM, first compound 0.3 µM) 43.1%; (second compound 10 µM, first compound 0.949 µM) 23.2%; (second compound 10 µM, first compound 3 µM) 5.18%.

For the molecule `CCN1CCN(Cc2ccc(Nc3ncc(F)c(-c4cc(F)c5nc(C)n(C(C)C)c5c4)n3)nc2)CC1`, the viability, T/C runs as follows: (compound 0.01 µM) 97.2% [middle of 13 runs]; (compound 0.0316 µM) 90.4% [middle of 13 runs]; (compound 0.1 µM) 83.7% [middle of 13 runs]; (compound 0.316 µM) 83.3% [middle of 13 runs]; (compound 1 µM) 94.2% [middle of 13 runs]. In addition, the IC50 (compound alone, run of 06/01/2021) is above 1 µM.

As for `Cn1cnc2c(F)c(Nc3ccc(Br)cc3Cl)c(C(=O)NOCCO)cc21` + CCN1CCN(Cc2ccc(Nc3ncc(F)c(-c4cc(F)c5nc(C)n(C(C)C)c5c4)n3)nc2)CC1, the IC50 was 2.98 µM (curve of first compound, second compound 0.01 µM); 2 µM (curve of first compound, second compound 0.0316 µM); 1.47 µM under setting [1]; 2.02 µM under setting [2]; above 3 µM under setting [3]. Further, the viability, T/C (second compound 0.01 µM, first compound 0.00949 µM) is 98.5%; the viability, T/C (second compound 0.01 µM, first compound 0.03 µM) was 95%; the viability, T/C (second compound 0.01 µM, first compound 0.0949 µM) was 82.1%; the viability, T/C (second compound 0.01 µM, first compound 0.3 µM) is 87.5%; the viability, T/C (second compound 0.01 µM, first compound 0.949 µM) is 69.4%; the viability, T/C (second compound 0.01 µM, first compound 3 µM) is 49.2%. The viability, T/C was 88.3% (second compound 0.0316 µM, first compound 0.00949 µM); 77% (second compound 0.0316 µM, first compound 0.03 µM); 72.2% (second compound 0.0316 µM, first compound 0.0949 µM); 79.4% (second compound 0.0316 µM, first compound 0.3 µM); 67.1% (second compound 0.0316 µM, first compound 0.949 µM); 40.8% (second compound 0.0316 µM, first compound 3 µM). The viability, T/C under setting [6] was 79.6%; the viability, T/C under setting [7] was 70.6%; the viability, T/C under setting [8] is 77.7%; the viability, T/C under setting [9] was 65.5%; the viability, T/C under setting [10] was 58.3%; the viability, T/C under setting [11] was 38.1%. Also, the viability, T/C under setting [12] is 77.3%; the viability, T/C under setting [13] is 74%; the viability, T/C under setting [14] was 68.3%; the viability, T/C under setting [15] was 68.3%; the viability, T/C under setting [16] was 56.2%; the viability, T/C under setting [17] was 46%. Further, the viability, T/C under setting [18] was 89.8%; the viability, T/C under setting [19] is 89.7%; the viability, T/C under setting [20] is 78.9%; the viability, T/C under setting [21] is 75.3%; the viability, T/C under setting [22] was 69.2%; the viability, T/C under setting [23] is 53%.

As for `Cn1cnc2c(F)c(Nc3ccc(Br)cc3Cl)c(C(=O)NOCCO)cc21`, the viability, T/C (compound 0.00949 µM) was 102% and 100%; the viability, T/C (compound 0.03 µM) is 104% and 97.5%; the viability, T/C (compound 0.0949 µM) is 104% and 96%; the viability, T/C (compound 0.3 µM) is 89.2% and 88.1%; the viability, T/C (compound 0.949 µM) was 79.1% and 75%; the viability, T/C (compound 3 µM) was 56.1% and 48.7%. Moreover, the IC50 (curve of compound) is > 3 µM and 2.85 µM.

With `Cn1ncc(Cl)c1-c1cc(C(=O)NC(CN)Cc2cccc(F)c2)sc1Cl` (stereo not drawn) + CC(C)NCC(C(=O)N1CCN(c2ncnc3c2C(C)CC3O)CC1)c1ccc(Cl)cc1, the IC50 by setting is: under setting [1], 1.68 µM; under setting [2], 2.07 µM; under setting [3], 1.11 µM; under setting [4], 0.951 µM; under setting [5], 0.0316 µM. Moreover, the viability, T/C by setting is: (second compound 0.1 µM, first compound 0.0316 µM) 90.9%; (second compound 0.1 µM, first compound 0.1 µM) 83.2%; (second compound 0.1 µM, first compound 0.316 µM) 70%; (second compound 0.1 µM, first compound 1 µM) 56.5%; (second compound 0.1 µM, first compound 3.16 µM) 44.5%; (second compound 0.1 µM, first compound 10 µM) 0.16%. Further, the viability, T/C runs as follows: (second compound 0.316 µM, first compound 0.0316 µM) 51.9%; (second compound 0.316 µM, first compound 0.1 µM) 73.5%; (second compound 0.316 µM, first compound 0.316 µM) 67.1%; (second compound 0.316 µM, first compound 1 µM) 54.5%; (second compound 0.316 µM, first compound 3.16 µM) 45.9%; (second compound 0.316 µM, first compound 10 µM) 0.16%. The viability, T/C was 67.3% (second compound 1 µM, first compound 0.0316 µM); 62.1% (second compound 1 µM, first compound 0.1 µM); 50.1% (second compound 1 µM, first compound 0.316 µM); 51.6% (second compound 1 µM, first compound 1 µM); 39.4% (second compound 1 µM, first compound 3.16 µM); 0.15% (second compound 1 µM, first compound 10 µM). For the same molecule, the viability, T/C was 53.2% (second compound 3.16 µM, first compound 0.0316 µM); 53.7% (second compound 3.16 µM, first compound 0.1 µM); 49% (second compound 3.16 µM, first compound 0.316 µM); 48.6% (second compound 3.16 µM, first compound 1 µM); 41.5% (second compound 3.16 µM, first compound 3.16 µM); 0.16% (second compound 3.16 µM, first compound 10 µM). For the same molecule, the viability, T/C by setting is: (second compound 10 µM, first compound 0.0316 µM) 42.7%; (second compound 10 µM, first compound 0.1 µM) 47.3%; (second compound 10 µM, first compound 0.316 µM) 43.9%; (second compound 10 µM, first compound 1 µM) 52.2%; (second compound 10 µM, first compound 3.16 µM) 28.6%; (second compound 10 µM, first compound 10 µM) 0.24%.
